Test results reported in US20210069295A1, “GALECTINS CONTROL MTOR IN RESPONSE TO ENDOMEMBRANE DAMAGE AND PROVIDE A MECHANISM AND TARGET FOR THE TREATMENT OF AUTOPHAGY-RELATED DISEASES” (STC. UNM, priority 2017, published 2021).
Peptide text beside a SMILES is read from it.

Experiments:
mTOR = mTOR activity in human peripheral blood monocyte derived macrophages; type: cell-based; conditions: 100 μM GPN, 1 h
Description: (§1) (A) Dose-response analysis of mTOR activity in HEK293T cells treated with glycyl-L-phenylalanine 2-naphththylamide (GPN) in full medium for 1 h. mTOR activity was monitored by inununoblotting analysis of S6K1 (T389) and ULK1 (S757) phosphorylation (phosphorylated S6K (T389) and ULK1 (S757) relative to total S6K and ULK1, respectively). (B) Analysis of mTOR activity (as in A) after GPN washout. HEK293T cells were treated with 100 μM GPN for 1 h followed by 1 h washout in full medium. Data, means±SEM (n=3), **p<0.01, ANOVA. (C) Analysis of mTOR activity (as in A) in HEK293T cells treated with increasing doses of silica in full medium for 1 h. (D) HEK293T cells were treated with lysosomal damaging agents (LLOMe, Leu-Leu-OMe) for 1 h in full medium and status of acidified organelles assessed by quantifying LysoTracker Red DND-99 puncta using automated high-content imaging and analysis (HC). […] Data, means±SEM, n≥3 independent experiments (500 primary objects counted per well; ≥5 wells/sample per each experiment), **p<0.01, ANOVA. […] Human peripheral blood monocyte derived macrophages were treated with 100 μM GPN in full medium or starved in EBSS for 1 h, and mTOR activity measured as in A. None-treated cells were as control (Ctrl). […] Data, means±SEM, n≥3 independent experiments (500 primary objects counted per well; ≥5 wells/sample per each experiment) **p<0.01, ANOVA. […]

TFEB = TFEB nuclear translocation by high-content microscopy in HeLa cells; type: cell-based; conditions: 1 h full medium
Description: as §1

For `NCC(=O)N[C@@H](Cc1ccccc1)C(=O)Nc1ccc2ccccc2c1` [GPN, glycyl-L-phenylalanine 2-naphththylamide] (HELM PEPTIDE1{G.F.[c1ccc2cc(N[*:1])ccc2c1]}$$$$V2.0), the “mTOR activity in primary cells” value (mTOR) was “confirmed” and the TFEB nuclear translocation (TFEB) was “translocated to the nucleus from the cytoplasm”.
